Experimental data reported in US11046680B1, “Heteroaryl-substituted triazoles as APJ receptor agonists” (priority 2016, dated 2021).

The compounds below were run against human APJ receptor (Homo sapiens (Human), UniProt P35414) (assay: biochemical). Conditions: [35S]GTPγS binding, CHO membranes expressing human APJ receptor; read-out: Activity hAPJ SPA EC50 IP.
Type: biochemical
Procedure, shortened: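 GTPγS binding on membranes from CHO cells stably expressing FLAG-tagged human APJ, with optimized GDP, MgCl2 and NaCl; incubated 90 min at RT before imaging read-out.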

Sequence of human APJ receptor (P35414 whole entry): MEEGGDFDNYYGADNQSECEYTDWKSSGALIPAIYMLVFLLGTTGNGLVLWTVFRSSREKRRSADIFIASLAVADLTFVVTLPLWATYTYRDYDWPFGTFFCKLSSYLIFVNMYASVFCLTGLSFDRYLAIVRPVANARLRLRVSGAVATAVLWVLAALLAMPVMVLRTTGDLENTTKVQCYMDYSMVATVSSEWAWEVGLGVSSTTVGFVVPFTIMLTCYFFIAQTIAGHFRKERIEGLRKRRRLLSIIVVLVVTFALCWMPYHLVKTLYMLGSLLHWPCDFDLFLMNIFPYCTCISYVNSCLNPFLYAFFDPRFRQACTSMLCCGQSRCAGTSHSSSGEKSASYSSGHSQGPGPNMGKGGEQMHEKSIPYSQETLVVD

Going from `COCC1(n2c(NS(=O)(=O)[C@@H](C)[C@H](OC)c3ncc(Cl)cn3)nnc2-c2cnn3ccccc23)CC1` [Example 509.0, (1R,2S)-1-(5-chloropyrimidin-2-yl)-1-methoxy-N-(4-(1-(methoxymethyl)cyclopropyl)-5-(pyrazolo[1,5-a]pyridin-3-yl)-4H-1,2,4-triazol-3-yl)propane-2-sulfonamide] to `COc1cnc([C@@H](C)[C@H](C)S(=O)(=O)Nc2nnc(-c3ccn(C)n3)n2-c2c(OC)cccc2OC)cn1` [Example 287.0, (2S,3R)-N-(4-(2,6-dimethoxyphenyl)-5-(1-methyl-1H-pyrazol-3-yl)-4H-1,2,4-triazol-3-yl)-3-(5-methoxy-2-pyrazinyl)-2-butanesulfonamide], the EC50 falls from 4.1 nM to 0.42 nM (9.8-fold).

Compared with `CCc1nc(-c2nnc(NS(=O)(=O)CCc3ncc(F)cn3)n2-c2c(OC)cccc2OC)cs1` [Example 99.0, N-(4-(2,6-dimethoxyphenyl)-5-(2-ethylthiazol-4-yl)-4H-1,2,4-triazol-3-yl)-2-(5-fluoropyrimidin-2-yl)ethanesulfonamide], `COc1ccccc1-n1c(NS(=O)(=O)Cc2ccc(Cl)cc2)nnc1-c1cccs1` [Example 234.0, 1-(4-chlorophenyl)-N-(4-(2-methoxyphenyl)-5-(2-thiophenyl)-4H-1,2,4-triazol-3-yl)methanesulfonamide] is 26-fold higher in EC50: 13 nM for the first, 340 nM for the second. The first is the more potent here.

Going from `COc1cccc(OC)c1-n1c(NS(=O)(=O)[C@@H](C)[C@H](C)c2ncc(F)cn2)nnc1-c1cncc(C)n1` [Example 209.0, (2S,3R)-N-(4-(2,6-dimethoxyphenyl)-5-(6-methyl-2-pyrazinyl)-4H-1,2,4-triazol-3-yl)-3-(5-fluoro-2-pyrimidinyl)-2-butanesulfonamide] to `COCC[C@@H]([C@H](C)c1ncc(F)cn1)S(=O)(=O)Nc1nnc(-c2nc(C)cs2)n1-c1c(OC)cccc1OC` (single isomer, unassigned) [Example 21.0], the EC50 rises from 1.5 nM to 90 nM (60-fold).

First: COc1cccc(OC)c1-n1c(NS(=O)(=O)[C@@H](C)[C@H](OC)c2ncc(C)cn2)nnc1-c1n[nH]c2ccc(Cl)cc12 [Example 412.0, (1R,2S)-N-(5-(5-chloro-1H-indazol-3-yl)-4-(2,6-dimethoxyphenyl)-4H-1,2,4-triazol-3-yl)-1-methoxy-1-(5-methylpyrimidin-2-yl)propane-2-sulfonamide]
Second: COc1cnc([C@@H](C)[C@H](C)S(=O)(=O)Nc2nnc(-c3ccn(C)n3)n2-c2c(OC)cccc2OC)nc1 [Example 295.0, (2S,3R)-N-(4-(2,6-dimethoxyphenyl)-5-(1-methyl-1H-pyrazol-3-yl)-4H-1,2,4-triazol-3-yl)-3-(5-methoxy-2-pyrimidinyl)-2-butanesulfonamide]
The EC50 of the first is 350-fold higher: 140 nM for the first, 0.4 nM for the second. The second is the more potent here.

Compared with `COc1cncc(-c2nnc(NS(=O)(=O)[C@@H](C)[C@H](OC)c3cnc(C)cn3)n2-c2c(OC)cccc2OC)n1` [Example 327.0, (1R,2S)-N-(4-(2,6-dimethoxyphenyl)-5-(6-methoxy-2-pyrazinyl)-4H-1,2,4-triazol-3-yl)-1-methoxy-1-(5-methyl-2-pyrazinyl)-2-propanesulfonamide], `COc1ccccc1-n1c(NS(=O)(=O)CCC(F)(F)F)nnc1-c1cccs1` [Example 386.0, 3,3,3-Trifluoro-N-(4-(2-methoxyphenyl)-5-(2-thiophenyl)-4H-1,2,4-triazol-3-yl)-1-propanesulfonamide] is higher in EC50: 4 nM for the first, > 12500 nM for the second. The first is the more potent here.

Compared with “(R)-N-(4-(2,6-dimethoxyphenyl)-5-(pyrimidin-2-yl)-4H-1,2,4-triazol-3-yl)-1-(5-fluoropyrimidin-2-yl)propane-2-sulfonamide and (S)-N-(4-(2,6-dimethoxyphenyl)-5-(pyrimidin-2-yl)-4H-1,2,4-triazol-3-yl)-1-(5-fluoropyrimidin-2-yl)propane-2-sulfonamide [Example 56.0]”, `COc1ccc(N2CCCC2=O)cc1-n1c(NS(=O)(=O)CCc2ccc(Cl)cc2)nnc1-c1cccs1` [Example 125.0, 2-(4-Chlorophenyl)-N-(4-(2-methoxy-5-(2-oxo-1-pyrrolidinyl)phenyl)-5-(2-thiophenyl)-4H-1,2,4-triazol-3-yl)ethanesulfonamide] is 3.1-fold lower in EC50: 74 nM for the first, 24 nM for the second.
